These results are taken from patent US20260297081A1, “COMPOUNDS AND METHODS OF TREATING CANCERS” (Cullgen Inc., priority 2023, published 2026).

Structures are written as SMILES.

The subject of the assay is MCF7 cells. The assay can be described thus: Anti-proliferation (viability) of MCF7 cells (Table 7, FIG. 2B). The class given is cell-based. The settings on record: Homo sapiens, MCF7, MCF7 cells, 3-6 days, 10-point serial dilution; read-out: GI IC50 in MCF-7.

Regarding `CC(=O)c1c(C)c2cnc(Nc3ccc(N4CCC(N5CC(C(=O)NC6CC7(C6)CC(Nc6nc(NC(C)C)ccc6C(=O)Nc6ccc(N(C)C)nn6)C7)C5)CC4)cn3)nc2n(C2CCCC2)c1=O` (centres unmarked) [CPD-393, 2-((6-(1-(1-(6-((6-acetyl-8-cyclopentyl-5-methyl-7-oxo-7,8-dihydropyrido[2,3-d]pyrimidin-2-yl)amino)pyridin-3-yl)piperidin-4-yl)azetidine-3-carboxamido)spiro[3.3]heptan-2-yl)amino)-N-(6-(dimethylamino)pyridazin-3-yl)-6-(isopropylamino)nicotinamide], the IC50 lay within 50 to 100 nM. With `[2H]C([2H])([2H])Nc1ccc(C(=O)Nc2ccc(N(C)C)nn2)c(NC2CC3(C2)CC(C(=O)N2CCC4(CCN(c5ccc(Nc6ncc7c(C)c(C(C)=O)c(=O)n(C8CCCC8)c7n6)nc5)CC4)C2)C3)n1` (centres unmarked) [CPD-380, 2-((6-(8-(6-((6-acetyl-8-cyclopentyl-5-methyl-7-oxo-7,8-dihydropyrido[2,3-d]pyrimidin-2-yl)amino)pyridin-3-yl)-2,8-diazaspiro[4.5]decane-2-carbonyl)spiro[3.3]heptan-2-yl)amnion)-N-(6-(dimethylamino)pyridazin-3-yl)-6-((methyl-d3)amnion)nicotinamide] the figure was above 100 nM; with `CC(=O)c1c(C)c2cnc(Nc3ccc(N4CCN(CC(=O)NC5CC6(C5)CC(Nc5nc(N(C)C)ccc5C(=O)Nc5cn(C)c(C7CC7)n5)C6)CC4)cn3)nc2n(C2CCCC2)c1=O` (centres unmarked) [CPD-291, 2-((6-(2-(4-(6-((6-acetyl-8-cyclopentyl-5-methyl-7-oxo-7,8-dihydropyrido[2,3-d]pyrimidin-2-yl)amino)pyridin-3-yl)piperazin-1-yl)acetamido)spiro[3.3]heptan-2-yl)amino)-N-(2-cyclopropyl-1-methyl-1H-imidazol-4-yl)-6-(dimethylamino)nicotinamide], above 100 nM; with `CNc1ccc(C(=O)Nc2ccc(N(C)C)nn2)c(NC2CCC(C(=O)N3CC4(CCN(c5ccc(Nc6ncc7c(C)c(C(C)=O)c(=O)n(C8CCCC8)c7n6)nc5)CC4)C3)CC2)n1` (centres unmarked) [CPD-351, 2-((4-(7-(6-((6-acetyl-8-cyclopentyl-5-methyl-7-oxo-7,8-dihydropyrido[2,3-d]pyrimidin-2-yl)amino)pyridin-3-yl)-2,7-diazaspiro[3.5]nonane-2-carbonyl)cyclohexyl)amino)-N-(6-(dimethylamino)pyridazin-3-yl)-6-(methylamino)nicotinamide], above 100 nM. The same measure for `CNc1ccc(C(=O)Nc2ccc(N(C)C)nn2)c(NC2CC(OC(=O)N3CCN(c4ccc(Nc5ncc6c(C)c(C(C)=O)c(=O)n(C7CCCC7)c6n5)nc4)CC3)C2)n1` (centres unmarked) [CPD-311, 3-((3-((6-(dimethylamino)pyridazin-3-yl)carbamoyl)-6-(methylamino)pyridin-2-yl)amino)cyclobutyl 4-(6-((6-acetyl-8-cyclopentyl-5-methyl-7-oxo-7,8-dihydropyrido[2,3-d]pyrimidin-2-yl)amino)pyridin-3-yl)piperazine-1-carboxylate]: above 100 nM. With `CNc1ccc(C(=O)Nc2ccc(N(C)C)nn2)c(NC2CC3(C2)CN(C(=O)C2CC4(CCN(c5ccc(Nc6ncc7c(C)c(C(C)=O)c(=O)n(C8CCCC8)c7n6)nc5)CC4)C2)C3)n1` (centres unmarked) [CPD-325, 2-((2-(7-(6-((6-acetyl-8-cyclopentyl-5-methyl-7-oxo-7,8-dihydropyrido[2,3-d]pyrimidin-2-yl)amino)pyridin-3-yl)-7-azaspiro[3.5]nonane-2-carbonyl)-2-azaspiro[3.3]heptan-6-yl)amino)-N-(6-(dimethylamino)pyridazin-3-yl)-6-(methylamino)nicotinamide] the figure was above 100 nM; with `CNc1ccc(C(=O)Nc2ccc(N(C)C)nn2)c(NC2CC3(C2)CN(C(=O)CN2CCN(Cc4ccc(Nc5ncc6c(C)c(C(C)=O)c(=O)n(C7CCCC7)c6n5)nc4)CC2)C3)n1` [CPD-268, 2-((2-(2-(4-((6-((6-acetyl-8-cyclopentyl-5-methyl-7-oxo-7,8-dihydropyrido[2,3-d]pyrimidin-2-yl)amino)pyridin-3-yl)methyl)piperazin-1-yl)acetyl)-2-azaspiro[3.3]heptan-6-yl)amino)-N-(6-(dimethylamino)pyridazin-3-yl)-6-(methylamino)nicotinamide], below 50 nM. Regarding `CNc1ccc(C(=O)Nc2cn(C)c(C(C)O)n2)c(NC2CC3(CC(NC(=O)CN4CCN(c5ccc(Nc6ncc7c(C)c(C(C)=O)c(=O)n(C8CCCC8)c7n6)nc5)CC4)C3)C2)n1` (centres unmarked) [CPD-330, 2-((6-(2-(4-(6-((6-acetyl-8-cyclopentyl-5-methyl-7-oxo-7,8-dihydropyrido[2,3-d]pyrimidin-2-yl)amino)pyridin-3-yl)piperazin-1-yl)acetamido)spiro[3.3]heptan-2-yl)amino)-N-(2-(1-hydroxyethyl)-1-methyl-1H-imidazol-4-yl)-6-(methylamino)nicotinamide], the IC50 was above 100 nM. The same measure for `CC(=O)c1c(C)c2cnc(Nc3ccc(N4CC5(CN(CC(=O)N6CCC(Nc7nc(NC(C)C)ccc7C(=O)Nc7ccc(N(C)C)nn7)CC6)C5)C4)cn3)nc2n(C2CCCC2)c1=O` [CPD-418, 2-((1-(2-(6-(6-((6-acetyl-8-cyclopentyl-5-methyl-7-oxo-7,8-dihydropyrido[2,3-d]pyrimidin-2-yl)amino)pyridin-3-yl)-2,6-diazaspiro[3.3]heptan-2-yl)acetyl)piperidin-4-yl)amino)-N-(6-(dimethylamino)pyridazin-3-yl)-6-(isopropylamino)nicotinamide]: below 50 nM; for `CC(=O)c1c(C)c2cnc(Nc3ccc(N4CCC(N(C)CC(=O)N5CC(Nc6nc(NC(C)C)ccc6C(=O)Nc6ccc(N(C)C)nn6)C5)CC4)cn3)nc2n(C2CCCC2)c1=O` [CPD-427, 2-((1-(N-(1-(6-((6-acetyl-8-cyclopentyl-5-methyl-7-oxo-7,8-dihydropyrido[2,3-d]pyrimidin-2-yl)amino)pyridin-3-yl)piperidin-4-yl)-N-methylglycyl)azetidin-3-yl)amino)-N-(6-(dimethylamino)pyridazin-3-yl)-6-(isopropylamino)nicotinamide]: below 50 nM; for `CC(=O)c1c(C)c2cnc(Nc3ccc(N4CCN(CC(=O)NCC5CC(Nc6cc(F)ccc6C(=O)Nc6cc(C)n(C)n6)C5)CC4)cn3)nc2n(C2CCCC2)c1=O` (centres unmarked) [CPD-264, 2-((3-((2-(4-(6-((6-acetyl-8-cyclopentyl-5-methyl-7-oxo-7,8-dihydropyrido[2,3-d]pyrimidin-2-yl)amino)pyridin-3-yl)piperazin-1-yl)acetamido)methyl)cyclobutyl)amino)-N-(1,5-dimethyl-1H-pyrazol-3-yl)-4-fluorobenzamide]: above 100 nM.

Consider `CC(=O)c1c(C)c2cnc(Nc3ccc(N4CCN(C5(C(=O)NC6CC7(C6)CC(Nc6nc(NC(C)C)ccc6C(=O)Nc6cn(C)c(C8CC8)n6)C7)CC5)CC4)cn3)nc2n(C2CCCC2)c1=O` (centres unmarked) [CPD-366, 2-((6-(1-(4-(6-((6-acetyl-8-cyclopentyl-5-methyl-7-oxo-7,8-dihydropyrido[2,3-d]pyrimidin-2-yl)amino)pyridin-3-yl)piperazin-1-yl)cyclopropane-1-carboxamido)spiro[3.3]heptan-2-yl)amino)-N-(2-cyclopropyl-1-methyl-1H-imidazol-4-yl)-6-(isopropylamino)nicotinamide], for which the 50% inhibitory concentration (IC50) was above 100 nM. The same measure for `CC(=O)c1c(C)c2cnc(Nc3ccc(N4CCN(C5CN(C(=O)C6CC7(CC(Nc8nc(NC(C)C)ccc8C(=O)Nc8ccc(N(C)C)nn8)C7)C6)C5)CC4)cn3)nc2n(C2CCCC2)c1=O` (centres unmarked) [CPD-401, 2-((6-(3-(4-(6-((6-acetyl-8-cyclopentyl-5-methyl-7-oxo-7,8-dihydropyrido[2,3-d]pyrimidin-2-yl)amino)pyridin-3-yl)piperazin-1-yl)azetidine-1-carbonyl)spiro[3.3]heptan-2-yl)amino)-N-(6-(dimethylamino)pyridazin-3-yl)-6-(isopropylamino)nicotinamide]: above 100 nM. With `CNc1ccc(C(=O)Nc2ccc(N(C)C)nn2)c(NCC2(F)CN(C(=O)CN3CCN(c4ccc(Nc5ncc6c(C)c(C(C)=O)c(=O)n(C7CCCC7)c6n5)nc4)CC3)C2)n1` [CPD-344, 2-(((1-(2-(4-(6-((6-acetyl-8-cyclopentyl-5-methyl-7-oxo-7,8-dihydropyrido[2,3-d]pyrimidin-2-yl)amino)pyridin-3-yl)piperazin-1-yl)acetyl)-3-fluoroazetidin-3-yl)methyl)amino)-N-(6-(dimethylamino)pyridazin-3-yl)-6-(methylamino)nicotinamide] the figure was above 100 nM; with `CC(=O)c1c(C)c2cnc(Nc3ccc(N4CCN(C5CCN(C(=O)[C@H]6CC[C@@H](Nc7nc(NC(C)C)ccc7C(=O)Nc7ccc(N(C)C)nn7)C6)C5)CC4)cn3)nc2n(C2CCCC2)c1=O` (stereo partly drawn) [CPD-403, 2-(((1R,3S)-3-(3-(4-(6-((6-acetyl-8-cyclopentyl-5-methyl-7-oxo-7,8-dihydropyrido[2,3-d]pyrimidin-2-yl)amino)pyridin-3-yl)piperazin-1-yl)pyrrolidine-1-carbonyl)cyclopentyl)amino)-N-(6-(dimethylamino)pyridazin-3-yl)-6-(isopropylamino)nicotinamide], 50 to 100 nM. As for `CC(=O)c1c(C)c2cnc(Nc3ccc(N4CCC(N5CC(C(=O)N6CCC(Nc7nc(NC(C)C)ccc7C(=O)Nc7ccc(N(C)C)nn7)CC6)C5)CC4)cn3)nc2n(C2CCCC2)c1=O` [CPD-390, 2-((1-(1-(1-(6-((6-acetyl-8-cyclopentyl-5-methyl-7-oxo-7,8-dihydropyrido[2,3-d]pyrimidin-2-yl)amino)pyridin-3-yl)piperidin-4-yl)azetidine-3-carbonyl)piperidin-4-yl)amino)-N-(6-(dimethylamino)pyridazin-3-yl)-6-(isopropylamino)nicotinamide], the IC50 was above 100 nM. As to `CNc1ccc(C(=O)Nc2ccc(N(C)C)nn2)c(NC2CC(C(=O)N3CC4(CCN(c5ccc(Nc6ncc7c(C)c(C(C)=O)c(=O)n(C8CCCC8)c7n6)nc5)CC4)C3)C2)n1` (centres unmarked) [CPD-331, 2-((3-(7-(6-((6-acetyl-8-cyclopentyl-5-methyl-7-oxo-7,8-dihydropyrido[2,3-d]pyrimidin-2-yl)amino)pyridin-3-yl)-2,7-diazaspiro[3.5]nonane-2-carbonyl)cyclobutyl)amino)-N-(6-(dimethylamino)pyridazin-3-yl)-6-(methylamino)nicotinamide], the IC50 was above 100 nM.

What is called IC50 is the midpoint of a concentration-inhibition curve.
